Source: patent US20060099283A1, “Leaf juice of plectranthus amboinicus for treating cancer and/or tumor” (priority 2004, published 2006)

Experiments:
HepG2 = HepG2 hepatocellular carcinoma cell count after treatment; assay type: cell-based; settings: Homo sapiens, 72 h; HepG2, day 3, 50 nM paciltaxel; read-out: inhibiting rate (cell growth)
Description: HepG2 and Hep3B cells were cultured in minimum essential medium supplemented with 10% fetal calf serum, 2 mM L-glutamine, 50 IU/mL penicillin, and 50 μg/mL streptomycin.
Cultures were maintained at 37° C. in a humidified atmosphere containing 5% CO2.
(§1) Treatment: In all in vitro experiments, 3% of the leaf juice prepared according to Example 1 was added to the cells after subcultured directly.
Cell count: Total cell counts were made by adding 20 μL of the cell suspension to 20 μL of 0.4% trypan blue, and counted under a phase contrast microscope.
The hepatocellular carcinoma cell lines used in the example are HepG2 and Huh7, and the manipulations of the cell culture and treatment are as described in Example 2. The cells were grouped into a control group (without treatment) and experiment groups treated with 5% of leaf juice, 50 nM paciltaxel, and combining 5% of leaf juice and 50 nM paciltaxel. Each group was repeated six times.

Huh7 = Huh7 hepatocellular carcinoma cell count after treatment; assay type: cell-based; settings: Homo sapiens, Huh-7, 72 h; Huh7, day 3, 50 nM paciltaxel; read-out: inhibiting rate (cell growth)
Excerpt: Cell lines: The following nine human tumor cell lines of different histologic origins were obtained from commercial cell culture collections unless indicated otherwise: HepG2 (haptocellular carcinoma, liver; provided by Dr. C H Huang, National Health Research Institute, Taipei, Taiwan), Hep3B (haptocellular carcinoma, liver; provided by Dr. C H Huang, National Health Research Institute, Taipei, Taiwan), U937 (myeloid leukemia), K562 (chronic myeloid leukemia, bone marrow), Calu-1 (epidermoid carcinoma, lung; provided by Dr. Y C Kuo, National Institute of Traditional Chinese Medicine, Taipei, Taiwan), TL (trophoblast-like cell line, placenta; provided by Dr. C K Ho, Veteran General Hospital, Taipei, Taiwan), Jurket (human lymphoblastoid T cell line), Bowes (human melanoma cell), and Huh7 (hepatocellular carcinoma/ectoderm).
Cultures were maintained at 37° C. in a humidified atmosphere containing 5% CO2. All cell reagents were obtained from Gibco-Invitrogen Co., Ltd (Grand Island, N.Y. U.S.A.) and HyClone (Logan, Utah, U.S.A.).
as §1
Cell count: Total cell counts were made by adding 20 μL of the cell suspension to 20 μL of 0.4% trypan blue, and counted under a phase contrast microscope. […]

What does the source list for `CC(=O)O[C@H]1C(=O)[C@@]2(C)[C@H]([C@H](OC(=O)c3ccccc3)[C@]3(O)C[C@H](OC(=O)[C@H](O)[C@@H](NC(=O)c4ccccc4)c4ccccc4)C(C)=C1C3(C)C)[C@]1(OC(C)=O)CO[C@@H]1C[C@@H]2O` [paciltaxel]?
inhibition at 0.05 µM (HepG2): 43.8%; inhibition at 0.05 µM (Huh7): 66.1%
